In one assay the target is T1, human FSH receptor (Homo sapiens, UniProt P23945).
T1 construct: host or cells: CHO-K1 (CHO FSH-R 6CRE-Luc, 1D7 cells)
T1 sequence (P23945 18-695): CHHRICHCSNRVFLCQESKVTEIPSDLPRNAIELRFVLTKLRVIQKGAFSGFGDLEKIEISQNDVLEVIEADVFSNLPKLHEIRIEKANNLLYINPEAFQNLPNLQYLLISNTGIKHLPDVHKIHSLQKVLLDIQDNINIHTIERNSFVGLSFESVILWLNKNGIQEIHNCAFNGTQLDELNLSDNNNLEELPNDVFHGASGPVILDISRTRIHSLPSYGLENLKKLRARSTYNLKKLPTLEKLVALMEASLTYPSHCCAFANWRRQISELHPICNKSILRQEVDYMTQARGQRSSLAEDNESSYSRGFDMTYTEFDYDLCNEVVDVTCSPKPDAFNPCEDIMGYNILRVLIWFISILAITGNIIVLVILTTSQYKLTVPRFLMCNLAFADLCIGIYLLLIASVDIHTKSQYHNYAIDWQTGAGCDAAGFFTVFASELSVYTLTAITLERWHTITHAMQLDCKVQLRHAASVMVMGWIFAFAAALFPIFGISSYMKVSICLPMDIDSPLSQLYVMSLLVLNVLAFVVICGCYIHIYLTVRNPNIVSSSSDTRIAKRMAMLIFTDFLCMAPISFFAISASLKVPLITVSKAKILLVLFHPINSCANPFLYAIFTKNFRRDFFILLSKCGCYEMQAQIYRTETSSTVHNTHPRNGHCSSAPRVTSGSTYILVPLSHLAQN
Kind of assay: FSH receptor-dependent CRE-luciferase reporter gene assay (CHO FSH-R 6CRE-Luc cells). As to conditions: dose-response format in presence of EC50 of purified human FSH; * n=3, ** n=2 averages. The class given is cell-based. The text has this:
FOLLICLE-STIMULATING HORMONE RECEPTOR-DEPENDENT CRE-LUCIFERASE REPORTER GENE ASSAY FOR THE IDENTIFICATION OF FOLLICLE-STIMULATING HORMONE (FSH) ANTAGONISTS
A Chinese hamster ovarian cell line that stably produces the human FSH receptor and a luciferase reporter gene regulated by cAMP response elements was used to identify and determine the relative potencies of human FSH receptor antagonists. See for example, Kelton, C. A., et al. Mol. Cell. Endocrinol. 89:141-151 (1992), Tilly, J. L., et al. Endocrinology 131:799-806(1992), and George, S. E., et al. J. Biomol. Screening 2:235-240 (1997).
Compound Vehicle: Stock compounds were solubilized in an appropriate vehicle, e.g., phosphate buffered saline (PBS) or dimethyl sulfoxide (DMSO), at 30 mM. The compounds subsequently were diluted in DMSO to working dilutions of 1 and 20 or 30 mM for 2-dose testing format and 1 μM-10 mM for dose-response format. The DMSO dilutions were diluted 500-fold in sterile growth medium [D-MEM/F-12 (GIBCO/BRL; Grand Island, N.Y.) containing 15 mM HEPES, 2 mM l-glutamine, pyridoxine hydrochloride, phenol red and 5% FETALCLONE® II (HyClone Laboratories, Inc; Logan, Utah), 0.2% DMSO, 100 units penicillin G/ml, and 100 μg streptomycin sulfate/ml (GIBCO/BRL)]. The concentration of the vehicle in each of the compound dilutions was the same.
Positive Controls: Purified human FSH (>98%) was purchased from Cortex Biochem, Inc. (San Leandro, Calif.) and 3-[(2S*,5R*)-5-{[2-(1H-Indol-3-yl)-ethylcarbamoyl]-methyl}-4-oxo-2-(5-phenylethynyl-thiophen-2-yl)-thiazolidin-3-yl]-benzamide (an FSH-R thiazolidinone antagonist) was prepared by processes described by R. A. Scheuerman et al. in U.S. Pat. No. 6,426,357 (Affymax).
The CHO FSH-R 6CRE-Luc cells (1D7 cells) were obtained from Affymax (Palo Alto, Calif.). These Chinese hamster ovary cells (CHO-K1) were engineered genetically to stably express the recombinant human FSH receptor gene and a luciferase reporter gene under the regulation of 6 copies of a cAMP response element. The cells were plated one day prior to treatment into 96-well white opaque plates at a density of 50,000 cells/100 μl/well in growth medium. On the day of treatment, the growth medium was removed from the wells by aspiration and 50 μl of fresh growth medium was added to each well. The cells were incubated at 37° C. in a humidified incubator with 5% CO2/95% air.
The treated cells were incubated for 4 hours at 37° C. in a humidified incubator with 5% CO2/95% air. At the end of the incubation period, luciferase activity was measured by chemiluminescence using a commercially available kit (LucScreen, Tropix, Inc., Bedford, Mass.) according to the manufacturer's specifications, except that Buffer 1 and Buffer 2 were mixed together in equal proportion prior to the addition of 100 μl of the combined reagents to each well. Chemiluminescence was detected using a luminometer (EG & G Berthold Microlumat LB 96 P, Wallac, Gaithersburg, Md.) with chemiluminescence measured for 1 sec/well. Background luminescence was measured for each well prior to the addition of the LucScreen reagent.
In the 96-well 2-dose format, each compound was tested in duplicate at each dose. […] One plate was used to test a maximum of 22 compounds.
The EC50 of purified human FSH alone was tested in triplicate with each test compound. The doses chosen to test each compound were extrapolated from the initial 2-dose screening process. Along with the test compounds, purified human FSH also was tested in a dose response (0.03, 0.1, 0.3, 1, 3, 10, and 30 ng/ml) for a positive control and quality control. One plate was used for 3 test compounds and the FSH positive control.
Luciferase activity is expressed as relative light units/sec/well. Luciferase activity in antagonist was compared to the appropriate negative and positive controls. For 2-dose testing, results are reported as luciferase activity and are expressed as percent inhibition of the response obtained from the EC50 of FSH.
(In general: Reporter assays use an easily measured gene product as a stand-in for the process of interest.)

A further assay addresses T2, hFSH-R (Homo sapiens, UniProt P23945).
T2 construct: expressed in transfected cells; host or cells: CHO-3D2 cells (CHO-K1 parental line)
T2 sequence (P23945 18-695): T1 sequence (P23945 18-695)
Kind of assay: cAMP accumulation (RIA) in CHO-3D2 cells (hFSH-R), hFSH-induced. The format is cell-based. As to conditions: inhibition of cAMP accumulation induced by hFSH at EC20, CHO-3D2 cells. As for the experimental part: IN VITRO BIO-ASSAY OF AGONISTS AND ANTAGONISTS TO THE FSH RECEPTOR. SELECTIVITY AND DEPENDENCY OF AGONISTS AND ANTAGONISTS TO THE FSH RECEPTOR
Compound Vehicle: Stock compounds were solubilized in 100% DMSO (Sigma-Aldrich Chemical Co., St. Louis, Mo.) at a concentration of 30 mM. The compounds subsequently were diluted in sterile assay medium consisting of Opti-MEM® I (Invitrogen/Life Technologies, Carlsbad, Calif.) with 0.1% (w/v) BSA (Sigma-Aldrich) prior to use in the bio-assay. The final concentration of DMSO in the assay was 0.1%.
Plated cells are then incubated at 37° C. in a humidified 5% CO2/95% air atmosphere.
Assay: On the day of the assay, cells were washed three times with 100 μl/well of assay medium consisting of Opti-MEM® I (Invitrogen/Life Technologies) with 0.1% (w/v) BSA (Sigma-Aldrich). Medium was removed and 100 μl of assay medium was added to each well. Plates were incubated for an additional 30 minutes at 37° C. […] Reactions were terminated by the addition of 50 μl of 0.2N hydrochloric acid to each well and cAMP-accumulation was measured by radioimmunoassay (RIA) using a commercially available kit (Amersham Biosciences, Piscataway, N.J.).
All test compounds were evaluated in a dose-response paradigm ranging from 0.01 to 30 μM. Controls and test compounds were evaluated in quadruplicate in a 96-well format.
Along with the test compounds, FSH was run also as a postive control in the agonist mode using concentrations ranging from 0.1-1000 ng/ml.
Data were analyzed by one-way analysis of variance and significant differences between treatments and control determined by Least Significant Difference test.
Test compounds were compared to the effect of purified human FSH.
In general terms: cAMP levels reflect the balance of adenylyl cyclase and phosphodiesterase activity.

SMILES strings stand for the structures.

23 compounds from patent publication US7678787B2, “Pyrrolobenzodiazepine pyridine carboxamides and derivatives as follicle-stimulating hormone receptor antagonists” (Wyeth, priority 2005, dated 2010) can be followed below.

The term IC50 denotes the concentration at which inhibition is half-maximal.

Consider `CSc1ccccc1-c1ccc(C(=O)N2Cc3ccc(C(=O)NCc4cccnc4)n3Cc3ccccc32)cc1` [Example 14, 10-{[2′-(METHYLTHIO)-1,1′-BIPHENYL-4-YL]CARBONYL}-N-(PYRIDIN-3-YLMETHYL)-10,11-DIHYDRO-5H-PYRROLO[2,1-C][1,4]BENZODIAZEPINE-3-CARBOXAMIDE 0.67 HYDRATE], for which the IC50 on human FSH receptor was 1.61 µM; on hFSH-R, 0.77 µM.

Regarding `Cc1cc(C(=O)N2Cc3ccc(C(=O)NCc4cccnc4)n3Cc3ccccc32)ccc1-c1ccccc1F` [Example 20], the IC50 on human FSH receptor was 3.7 µM; against hFSH-R, 1.3 µM.

`Cc1cc(C(=O)N2Cc3ccc(C(=O)NCc4cccnc4)n3Cc3ccccc32)ccc1-c1ccccc1Cl` [Example 21]: the results for the IC50 on human FSH receptor and against hFSH-R were 2.9 µM and 1 µM, respectively.

For the compound `Cc1cc(C(=O)N2Cc3ccc(C(=O)NCc4cccnc4)n3Cc3ccccc32)ccc1-c1ccc(Cl)cc1` [Example 24], the IC50 on human FSH receptor was determined as 10.7 µM; against hFSH-R, 1.6 µM.

Consider `N#Cc1ccccc1-c1ccc(C(=O)N2Cc3ccc(C(=O)NCc4cccnc4)n3Cc3ccccc32)cc1` [Example 30], for which the values for the IC50 at human FSH receptor and against hFSH-R were 1.1 µM and 0.27 µM, respectively.

With `CC(C)c1ccccc1-c1ccc(C(=O)N2Cc3ccc(C(=O)NCc4cccnc4)n3Cc3ccccc32)cc1` [Example 31], the figures for the IC50 at human FSH receptor and against hFSH-R were 0.94 µM and 0.33 µM, respectively.

Regarding `COC(=O)Cc1ccccc1-c1ccc(C(=O)N2Cc3ccc(C(=O)NCc4cccnc4)n3Cc3ccccc32)cc1` [Example 32], the results for the 50% inhibitory concentration (IC50) on human FSH receptor and at hFSH-R were 0.156 µM and 0.02 µM, respectively.

Turning to `CCOc1ccccc1-c1ccc(C(=O)N2Cc3ccc(C(=O)NCc4cccnc4)n3Cc3ccccc32)cc1` [Example 33], the results for the IC50 at human FSH receptor and against hFSH-R were 1.45 µM and 0.9 µM, respectively.

With `O=C(NCc1cccnc1)c1ccc2n1Cc1ccccc1N(C(=O)c1ccc(-c3ccccc3O)cc1)C2` [Example 34], the IC50 at human FSH receptor is 1.55 µM; against hFSH-R it was 0.59 µM.

Take `CC(C)C(=O)c1ccccc1-c1ccc(C(=O)N2Cc3ccc(C(=O)NCc4cccnc4)n3Cc3ccccc32)cc1` [Example 36]: the IC50 came to 1.86 µM at human FSH receptor and 0.43 µM on hFSH-R.

Consider `CC(C)C(O)c1ccccc1-c1ccc(C(=O)N2Cc3ccc(C(=O)NCc4cccnc4)n3Cc3ccccc32)cc1` (stereo not shown) [Example 37], for which the IC50 at human FSH receptor worked out at 1.64 µM; at hFSH-R, 0.49 µM.

Take `NC(=O)Cc1ccccc1-c1ccc(C(=O)N2Cc3ccc(C(=O)NCc4cccnc4)n3Cc3ccccc32)cc1` [Example 38]: the IC50 at human FSH receptor came to 0.078 µM; against hFSH-R, 0.09 µM.

As to `CNC(=O)Cc1ccccc1-c1ccc(C(=O)N2Cc3ccc(C(=O)NCc4cccnc4)n3Cc3ccccc32)cc1` [Example 39], the values for the IC50 on human FSH receptor and at hFSH-R were 0.414 µM and 0.25 µM, respectively.

For the compound `CN(C)C(=O)Cc1ccccc1-c1ccc(C(=O)N2Cc3ccc(C(=O)NCc4cccnc4)n3Cc3ccccc32)cc1` [Example 40], the IC50 on human FSH receptor was 0.921 µM; at hFSH-R it was 0.32 µM.

For the compound `Cc1cc(C(=O)N2Cc3ccc(C(=O)NCc4cccnc4)n3Cc3ccccc32)ccc1-c1ccccc1C(C)O` (stereo not shown) [Example 50], the IC50 at human FSH receptor was 1 µM; on hFSH-R, 0.3 µM.

As to `CCNC(=O)Cc1ccccc1-c1ccc(C(=O)N2Cc3ccc(C(=O)NCc4cccnc4)n3Cc3ccccc32)cc1` [Example 66], the IC50 worked out at 3.67 µM on human FSH receptor and 0.81 µM against hFSH-R.

For `CC(C)(C)c1ccc(C(=O)N2Cc3ccc(C(=O)NCc4cccnc4)n3Cc3ccccc32)cc1` [Example 80], the IC50 on human FSH receptor was determined as 4.96 µM; against hFSH-R, 1.1 µM.

Consider `CN(C)c1ccc(C(=O)N2Cc3ccc(C(=O)NCc4cccnc4)n3Cc3ccccc32)cc1` [Example 84], for which the IC50 turned out to be 5.82 µM at human FSH receptor and 1.2 µM at hFSH-R.

Consider `O=C(NCc1cccnc1)c1ccc2n1Cc1ccccc1N(C(=O)c1ccc(OC(F)(F)F)cc1)C2` [Example 85], for which the IC50 was 6.44 µM at human FSH receptor and 1.1 µM against hFSH-R.

Consider `CCCc1ccc(C(=O)N2Cc3ccc(C(=O)NCc4cccnc4)n3Cc3ccccc32)cc1` [Example 98], for which the IC50 at human FSH receptor was found to be 4.96 µM; against hFSH-R it was 0.4 µM.

Consider `CCN(CC)c1ccc(C(=O)N2Cc3ccc(C(=O)NCc4cccnc4)n3Cc3ccccc32)cc1` [Example 102], for which the values for the IC50 on human FSH receptor and on hFSH-R were 5.82 µM and 0.8 µM, respectively.

`Cc1cc(C(=O)N2Cc3ccc(C(=O)NCc4cccnc4)n3Cc3ccccc32)ccc1-c1cccs1` [Example 104]: the IC50 at human FSH receptor is 3 µM; at hFSH-R it was 0.4 µM.

As for `O=C(NCc1cccnc1)c1ccc2n1Cc1ccccc1N(C(=O)c1ccc(NCc3ccccc3)nc1)C2` [Example 119], the IC50 at human FSH receptor was determined as 10.5 µM; against hFSH-R, 6.7 µM.
